Key:
Fgfr3^Y367C/+ femurs = assay: Ex vivo culture of E16.5 embryonic femur explants, bone length; format: cell-based, mouse
Description: (§1) Six sets of ex vivo experiments were performed. Femur embryos at day E16.5 from WT (n=6) and Fgfr3^Y367C/+ (n=6) mice were used and incubated for 5 days in DMEM medium with antibiotics and 0.2% BSA (Sigma) supplemented with A31 or PD173074 (as control) at a concentration of 2 mM. Right femur was cultured in supplemented medium and compared with the left one cultured in control medium. Rib cage from E16.5 WT and Fgfr3^Y367C/+ mice embryos were isolated and stripped of all soft tissues. Primary chondrocytes were obtained from rib cages. The ribs were incubated in a pronase solution (Roche; 2 mg/ml) followed by a digestion in Collagenase A (Roche; 3 mg/ml) at 37° C. Isolated chondrocytes were plated out at a density of 2.105 cells in 6-well plates containing DMEM supplemented with 10% FCS and antibiotics, and were allowed to reach subconfluency. Cultures were supplemented with A31 or PD173074 (as control) at a concentration of 2 mM. Cells were treated with A31 (2 mM) PD173074 (as control) in serum-free DMEM supplemented with 0.2% BSA and harvested after 24 h. To establish the effect of the inhibitors, the right femur was cultured in supplemented medium and compared with the left one cultured in control medium The bone length was measured at the beginning (before treatment) and at the end of time course. Each experiment was repeated at least three times. The genotype of WT, Fgfr3^Y367C/+ and Fgfr3^−/− mice were determined by PCR of tail DNA as previously described (Pannier et al., Biochim Biophys Acta, 1792: 140-147, 2009). All experimental procedures and protocols were approved by the Animal Care and Use Committee.
Fgfr3^Y367C/+ mice display reduced length of long bones, broad femurs, a narrow trunk, short ribs and a slightly dome-shaped skull, closely resembling achondroplasia (FIGS. 3A and B). The inventors analyzed the effects of A31 on endochondral ossification in Fgfr3^Y367C/+ mice by using an ex vivo culture system for embryonic day 16.5 (E16.5) limb explants. […] After 5 days of culture, the increase in length of the treated mutant femurs was 2.6 times more than for that of WT.
Thus, embryonic femur explants were co-incubated with 150 nM of PD173074 for 5 days.
Embryonic femur explants were co-incubated 100 nM (10^−7M) or 1 μM (10^−6M) of BGJ-398 for 6 days.

[1] = tested on: Fgfr3^Y367C/+ mouse growth plates; assay: Proliferation markers and cell cycle regulators in growth plates (immunohistochemistry, PCNA quantification); format: cell-based
Description: In situ hybridization using [S35]-UTP labeled antisense ribopropes for collagen X was carried out as previously described (Delezoide et al., Hum Mol Genet, 6, 1899-1906, 1997). Sections were counterstained with Hematoxylin. For immunohistochemistry, sections were stained with antibodies specific to FGFR3 (1:250 dilution; Sigma), anti PCNA (1:1000 dilution; Abcam), anti-KI67 (1:300; Abcam), anti-cyclin D1 (1:80 dilution; Santa Cruz) and anti-p57 (1:100 dilution; Santa Cruz) using the Dako Envision kit. Images were captured with an Olympus PD70-IX2-UCB microscope.
Three observers counted PCNA-positive and negative chondrocytes in proliferative […], prehypertrophic (PH) and hypertrophic (H) zones of the growth plate. A Student's t-test was used to compare treated (A31) and untreated femurs. Imagine software cellSens (Olympus) was used for counting cells. A p-value<0.05 is considered significant.
The inventors noted a higher expression of PCNA than KI67 in the mutant growth plate. Furthermore, the inventors investigated whether the presence of mutated Fgfr3 caused an impairment of expression of cell cycle regulators. In fact, activated Fgfr3 induced a significant overexpression of cyclin D1 in the proliferative and PH chondrocytes of Fgfr3^Y367C/+ mice. […] The inventors further analyzed the level of CDK inhibitors (CDKIs) negatively regulating the cell cycle, particularly p57, a member of the Cip/Kip family. Activated Fgfr3 induced a higher expression of p57 predominantly in late proliferative and PH chondrocytes. […] The inventors conclude that activated FGFR3 leads to over-expression of markers of proliferation (PCNA, KI67) and cell cycle regulators (cyclin D1 and p57) particularly in the prehypertrophic zone.

cyclin D1 = assay: Cyclin D1 immunoblot in costal primary chondrocytes from E16.5 ribs; format: cell-based, mouse; conditions: A31-treated murine chondrocytes vs untreated
Description: as §1, with “Isolated chondrocytes were plated out at a density of 2.105 cells in 6-well plates containing DMEM supplemented with 10% FCS and antibiotics, and were allowed to reach subconfluency. Cultures were supplemented with A31 or PD173074 (as control) at a concentration of 2 mM. Cells were treated with A31 (2 mM) PD173074 (as control) in serum-free DMEM supplemented with 0.2% BSA and harvested after 24 h.” left out, “Each experiment was repeated at least three times.” left out, “All experimental procedures and protocols were approved by the Animal Care and Use Committee.” left out
Immunoprecipitation were performed by incubating […] rabbit anti-FGFR3 (Sigma)/[…] protein with protein A-agarose (Roche). […] Bound proteins were detected by chemiluminescence (ECL, Amersham). The blots were rehybrididized with an antipan-actin antibody for quantification (Millipore). […]

[2] = A31-treated Fgfr3^Y367C/+ growth plates

SMILES: COc1cc(OC)cc(-c2cc3cnc(NCc4cn(CC5CCCN(C)C5)nn4)nc3nc2NC(=O)NC(C)(C)C)c1 (stereo not drawn) [Compound A31]
- limb growth in Fgfr3^Y367C/+ femurs (in words) (Fgfr3^Y367C/+ femurs; A31 2 mM, 5 days): fully restore limb growth
- longitudinal bone growth (gain in femur length) (Fgfr3^Y367C/+ femurs; A31 2 mM, 5 days of culture, Fgfr3^Y367C/+ femurs): 1880±558 μm
- increase in length of treated mutant femurs relative to WT (Fgfr3^Y367C/+ femurs; A31, after 5 days of culture): 2.6 times
- PCNA positive cells, hypertrophic (H) zone [1, 2]: 18%
- PCNA positive cells, prehypertrophic (PH) zone [1, 2]: 20%
- p57 protein expression in growth plate ([1]; A31, PH zone, data not shown): reduced expression of p57 protein
- KI67 expression in growth plates ([1]; A31, data not shown): decreased this expression
- cyclin D1 expression in mutant femurs (immunohistochemistry) ([1]; A31, data not shown): returned cyclin D1 expression to control levels
- cyclin D1 level (Western blot) (cyclin D1): reduced level of cyclin D1
